Molecular target: T1, SYK kinase (Homo sapiens, UniProt P43405)
T1 construct: purchased Invitrogen, Carlsbad
Assay: SYK Assay (OMNIA KINASE ASSAY, SOX peptide fluorescence)
Format: biochemical
Settings: apparent Ki calculated from the IC50 using the Cheng-Prusoff equation; 1 mM ATP, 30° C.; read-out: SYK Activities: Ki
Procedure: In the assay OMNIA® KINASE ASSAY by Invitrogen Corporation (Carlsbad) the effect of invention of a compound on the phosphorylation is determined by measurement of fluorescence intensity of a chelation-enhanced fluorophore called SOX. Upon phosphorylation of the peptide by the kinase of interest, Mg2+ is chelated to form a bridge between the SOX moiety and the phosphate group that is transferred to the specific tyrosine on the peptide. The fluorescence intensity is directly proportional to the amount of peptide phosphorylation.
To the wells of an 384 well small volume plate (Greiner, Frickenhausen) are added (i) the compound under test in 5% DMSO/distilled water (2 μl), (ii) 16 μl of the master mix containing ATP, DTT, Kinase Reaction Buffer, Omina Peptide Substrate Tyr 7 resulting in a final concentration of 1 mM ATP, 0.2 mM DTT and 10 μM Peptide Substrate.
The Master Mix and the assay plate was incubated to reaction temperature before the measurement (30° C.). The reaction was started with addition of (iii) 2 μl 4 μg/ml SYK kinase (Invitrogen, Carlsbad). During measurement fluorescence intensitiy readings were collected using a TECAN M1000 at a wavelength of λex 360/λem 485 nm every 30 s for 30 minutes. The reaction velocity was plotted versus the inhibitor concentration to determine the […] using XLFit 5.0 (IDBS, Guildford) to fit to a sigmoidal dose response curve, and the apparent Ki values were calculated from the IC50 using the Cheng-Prusoff equation (Cheng, Y.; Prusoff, W. H. Biochem. Pharmacol. 22, 3099-3108, 1973).

SMILES	Ki [µM]
N[C@@H]1CCCC[C@@H]1Nc1nc(-c2ccsc2)nc2cn[nH]c12 [Example #116, (1S,2R)—N-(5-Thiophen-3-yl-1H-pyrazolo[4,3-d]pyrimidin-7-yl)-cyclohexane-1,2-diamine]	0.01 to 0.1
COc1ccc(OC)c(-c2nc(Nc3ccc(OC)c(OC)c3)c3[nH]ncc3n2)c1 [Example #121, 5-(2,5-dimethoxyphenyl)-N-(3,4-dimethoxyphenyl)-1H-pyrazolo[4,3-d]pyrimidin-7-amine]	0.1 to 1
CCN1CCN(c2ccc(Nc3nc(-c4cc(OC)ccc4OC)nc4cn[nH]c34)cc2)CC1 [Example #122, 5-(2,5-dimethoxyphenyl)-N-(4-(4-ethylpiperazin-1-yl)phenyl)-1H-pyrazolo[4,3-d]pyrimidin-7-amine]	0.01 to 0.1
COc1ccc(OC)c(-c2nc(Nc3ccc(N4CCN(C5CC5)CC4)cc3)c3[nH]ncc3n2)c1 [Example #123, N-(4-(4-cyclopropylpiperazin-1-yl)phenyl)-5-(2,5-dimethoxyphenyl)-1H-pyrazolo[4,3-d]pyrimidin-7-amine]	0.01 to 0.1
COc1ccc(Nc2nc(-c3cn4ccccc4n3)nc3cn[nH]c23)cc1OC [Example #124, N-(3,4-dimethoxyphenyl)-5-(imidazo[1,2-a]pyridin-2-yl)-1H-pyrazolo[4,3-d]pyrimidin-7-amine]	0.01 to 0.1
CCN1CCN(c2ccc(Nc3nc(-c4cn5ccccc5n4)nc4cn[nH]c34)cc2)CC1 [Example #125, N-(4-(4-ethylpiperazin-1-yl)phenyl)-5-(imidazo[1,2-a]pyridin-2-yl)-1H-pyrazolo[4,3-d]pyrimidin-7-amine]	0.01 to 0.1
O=C(O)c1ccc(Nc2nc(-c3cn4ccccc4n3)nc3cn[nH]c23)cc1 [Example #128, 4-((5-(imidazo[1,2-a]pyridin-2-yl)-1H-pyrazolo[4,3-d]pyrimidin-7-yl)amino)benzoic-acid]	< 0.01
COc1ccc(Nc2nc(-c3nc4ccccc4[nH]3)nc3cn[nH]c23)cc1OC [Example #129, 5-(1H-benzo[d]imidazol-2-yl)-N-(3,4-dimethoxyphenyl)-1H-pyrazolo[4,3-d]pyrimidin-7-amine]	0.01 to 0.1
COc1ccc(Nc2nc(-c3nc4ccccc4n3C)nc3cn[nH]c23)cc1OC [Example #130, N-(3,4-dimethoxyphenyl)-5-(1-methyl-1H-benzo[d]imidazol-2-yl)-1H-pyrazolo[4,3-d]pyrimidin-7-amine]	0.1 to 1
Cc1cccc(NC(=O)Nc2ccc(Nc3nc(-c4ccsc4)nc4cn[nH]c34)cc2)c1 [Example #133, 1-(4-((5-(thiophen-3-yl)-1H-pyrazolo[4,3-d]pyrimidin-7-yl)amino)phenyl)-3-(m-tolyl)urea]	0.1 to 1
CN1CCN(c2ccc(Nc3nc(-c4ncc[nH]4)nc4cn[nH]c34)cc2)CC1 [Example #141, 5-(1H-imidazol-2-yl)-N-(4-(4-methylpiperazin-1-yl)phenyl)-1H-pyrazolo[4,3-d]pyrimidin-7-amine]	0.01 to 0.1
CC1(C)CNc2cc(Nc3nc(-c4ccsc4)nc4cn[nH]c34)ccc2S1 [Example #148, 2,2-dimethyl-N-(5-(thiophen-3-yl)-1H-pyrazolo[4,3-d]pyrimidin-7-yl)-3,4-dihydro-2H-benzo[b][1,4]thiazin-6-amine]	0.1 to 1
CN1CCN(c2ccc(Nc3nc(-c4cccc(-c5nn[nH]n5)c4)nc4cn[nH]c34)cc2)CC1 [Example #149, 5-(3-(2H-tetrazol-5-yl)phenyl)-N-(4-(4-methylpiperazin-1-yl)phenyl)-1H-pyrazolo[4,3-d]pyrimidin-7-amine]	< 0.01
CN(C)CCNc1nc(C(=O)c2ccccc2)nc2cn[nH]c12 [Example #150, (7-((2-(dimethylamino)ethyl)amino)-1H-pyrazolo[4,3-d]pyrimidin-5-yl)(phenyl)methanone]	0.1 to 1
CN1CCC(CNc2nc(C(=O)c3ccccc3)nc3cn[nH]c23)CC1 [Example #151, (7-(((1-methylpiperidin-4-yl)methyl)amino)-1H-pyrazolo[4,3-d]pyrimidin-5-yl)(phenyl)methanone]	< 0.01
CN1CCN(c2ccc(Nc3nc(C(=O)c4ccccc4)nc4cn[nH]c34)cc2)CC1 [Example #152, (7-((4-(4-methylpiperazin-1-yl)phenyl)amino)-1H-pyrazolo[4,3-d]pyrimidin-5-yl)(phenyl)methanone]	0.01 to 0.1
COc1ccc(Nc2nc(C(=O)c3ccccc3)nc3cn[nH]c23)cc1OC [Example #153, (7-((3,4-dimethoxyphenyl)amino)-1H-pyrazolo[4,3-d]pyrimidin-5-yl)(phenyl)methanone]	0.1 to 1

SMILES	Ki [µM]
O=C1CSc2ccc(Nc3nc(-c4cccs4)nc4cn[nH]c34)cc2N1 [Example #165, 6-((5-(thiophen-2-yl)-1H-pyrazolo[4,3-d]pyrimidin-7-yl)amino)-2H-benzo[b][1,4]thiazin-3(4H)-one]	0.01 to 0.1
CC(C)(C#N)c1ccc(Nc2nc(-c3cccs3)nc3cn[nH]c23)cc1 [Example #167, 2-methyl-2-(4-((5-(thiophen-2-yl)-1H-pyrazolo[4,3-d]pyrimidin-7-yl)amino)phenyl)propanenitrile]	0.01 to 0.1
COc1ccc(-c2nc(Nc3ccc(N4CCSCC4)cc3)c3[nH]ncc3n2)cc1 [Example #168, 5-(4-methoxyphenyl)-N-(4-thiomorpholinophenyl)-1H-pyrazolo[4,3-d]pyrimidin-7-amine]	0.01 to 0.1
CN1CCN(c2ccc(Nc3nc(-c4cccc(OCC(=O)O)c4)nc4cn[nH]c34)cc2)CC1 [Example #174, 2-(3-(7-((4-(4-methylpiperazin-1-yl)phenyl)amino)-1H-pyrazolo[4,3-d]pyrimidin-5-yl)phenoxy)acetic acid]	0.1 to 1
CN1CCN(c2ccc(Nc3nc(-c4cccc(CC(=O)O)c4)nc4cn[nH]c34)cc2)CC1 [Example #176, 2-(3-(7-((4-(4-methylpiperazin-1-yl)phenyl)amino)-1H-pyrazolo[4,3-d]pyrimidin-5-yl)phenyl)acetic acid]	0.01 to 0.1
CN1CCN(c2ccc(Nc3nc(-c4cccc(C(=O)O)n4)nc4cn[nH]c34)cc2)CC1 [Example #177, 6-(7-((4-(4-methylpiperazin-1-yl)phenyl)amino)-1H-pyrazolo[4,3-d]pyrimidin-5-yl)picolinic acid]	0.01 to 0.1
FS(F)(F)(F)(F)c1ccc(Nc2nc(-c3ccsc3)nc3cn[nH]c23)cc1 [Example #178, N-(4-(pentafluorosulfanyl)phenyl)-5-(thiophen-3-yl)-1H-pyrazolo[4,3-d]pyrimidin-7-amine]	0.1 to 1
Cc1ccc(CNCc2cccc(-c3nc(Nc4ccc(N5CCN(C)CC5)cc4)c4[nH]ncc4n3)c2)cc1 [Example #180, 5-(3-(((4-methylbenzyl)amino)methyl)phenyl)-N-(4-(4-methylpiperazin-1-yl)phenyl)-1H-pyrazolo[4,3-d]pyrimidin-7-amine]	0.01 to 0.1
CN(C)CCCOc1cccc(-c2nc(Nc3ccc(N4CCN(C)CC4)cc3)c3[nH]ncc3n2)c1 [Example #181, 5-(3-(3-(dimethylamino)propoxy)phenyl)-N-(4-(4-methylpiperazin-1-yl)phenyl)-1H-pyrazolo[4,3-d]pyrimidin-7-amine]	0.01 to 0.1
CC(=O)N1CCN(c2ccc(Nc3nc(-c4cccc(-c5nn[nH]n5)c4)nc4cn[nH]c34)cc2)CC1 [Example #192, 1-(4-(4-((5-(3-(2H-tetrazol-5-yl)phenyl)-1H-pyrazolo[4,3-d]pyrimidin-7-yl)amino)phenyl)piperazin-1-yl)ethan-1-one]	< 0.01
COC(=O)c1cccc(-c2nc(Nc3ccc4c(c3)NC(=O)CC4)c3[nH]ncc3n2)c1 [Example #210, methyl 3-(7-((2-oxo-1,2,3,4-tetrahydroquinolin-7-yl)amino)-1H-pyrazolo[4,3-d]pyrimidin-5-yl)benzoate]	0.01 to 0.1
COC(=O)c1cccc(-c2nc(Nc3ccc4c(c3)NC(=O)CO4)c3[nH]ncc3n2)c1 [Example #211, methyl 3-(7-((3-oxo-3,4-dihydro-2H-benzo[b][1,4]oxazin-6-yl)amino)-1H-pyrazolo[4,3-d]pyrimidin-5-yl)benzoate]	0.01 to 0.1
O=C1COc2ccc(Nc3nc(-c4cccc(C(=O)O)c4)nc4cn[nH]c34)cc2N1 [Example #212, 3-(7-((3-oxo-3,4-dihydro-2H-benzo[b][1,4]oxazin-6-yl)amino)-1H-pyrazolo[4,3-d]pyrimidin-5-yl)benzoic acid]	0.01 to 0.1
COC(=O)c1ccc(-c2nc(Nc3ccc(N4CCN(C)CC4)cc3)c3[nH]ncc3n2)cc1 [Example #213, methyl 4-(7-((4-(4-methylpiperazin-1-yl)phenyl)amino)-1H-pyrazolo[4,3-d]pyrimidin-5-yl)benzoate]	< 0.01
COC(=O)c1ccc(-c2nc(Nc3ccc4c(c3)NC(=O)CC4)c3[nH]ncc3n2)cc1 [Example #215, methyl 4-(7-((2-oxo-1,2,3,4-tetrahydroquinolin-7-yl)amino)-1H-pyrazolo[4,3-d]pyrimidin-5-yl)benzoate]	0.1 to 1
COC(=O)c1cccc(-c2nc(Nc3ccc4c(c3)NC(=O)CS4)c3[nH]ncc3n2)c1 [Example #216, methyl 3-(7-((3-oxo-3,4-dihydro-2H-benzo[b][1,4]thiazin-6-yl)amino)-1H-pyrazolo[4,3-d]pyrimidin-5-yl)benzoate]	0.01 to 0.1
